Here are results for three compounds from US6130215A, “Piperazinylalkylthiopyrimidine derivatives, pharmaceutical compositions containing the same and a process for the preparation of the novel compounds” (Egis Gyoyszergyar RT, priority 1995, dated 2000).

Each structure is given as a SMILES string.

For assay [1], the target named is T1, 5-HT2A receptor (Oryctolagus cuniculus, UniProt G1SYA7).
T1 construct: The thoracic aorta segment after the aortic arch was removed; from tissue; host or cells: rabbit thoracic aorta, helical strips
Briefly: 5-HT2A receptor antagonistic effect: inhibition of 5-HT-evoked contractions on isolated rabbit aortic strips. It counts as cell-based, rabbit (New-Zealand, male, white). The settings on record: 5-HT 10^-6 M; phenoxybenzamine 10^-8 M; tranylcypramine 10^-7 M; 10 minutes incubation. The protocol:
New-Zealand, male, white rabbits weighing 2.0 to 2.5 kg were killed by a blow on the head. The thoracic aorta segment after the aortic arch was removed and placed into a Krebs' solution (NaCl 118 mM, KCl 4.6 mM, NaHCO3 25 mM, glucose 10.5 mM, […] 1 mM, KH2PO4 1 mM, CaCl2 2.6 mM). The aorta was carefully cleaned from fat and connective tissue, and was cut into 3 mm wide and 30 mm long helical strips. Four strips were obtained from each rabbit. The strips were equilibrated at 37° C. for 60 minutes in an organ chamber filled with Krebs' solution. The strips were also oxygenated by bubbling carbogen gas (5% of carbon dioxide and 95% of oxygen) through the solution. The strips were stretched by 1 g tension.
The contractions were measured by a Hugo Sachs K-30 type strain gauge, and were registered on a Multicorder type polygraph. During the last 40 minutes of the equilibration, the MAO enzym inhibitor tranylcypramine (10^-7 M) /chemical name: (±)-trans-2-phenylcyclopropylamine/ was also added to the bath.
Any alpha-adrenergic effects of the test compounds were eliminated by 10^-8 M of phenoxybenzamine /N-(2-chloroethyl)-N-(1-methyl-2-phenoxyethyl)benzylamine/ /Clancy et al., J. Pharm. Exp. Ther., 233, 761 (1985). Testing of the serotonergic antagonistic effect was started at the 90th minute of incubation. The stability and reproducibility of the contractile response of the aortic strips to serotonin was tested by two consecutive application and wash-out procedures of 10^-6 M concentration of 5-HT, 40 minutes apart. […] 30 minutes after the second testing, a preset concentration of the test compound was added to the bath, and, after a 10 minutes incubation time, the response to 10^-6 M of 5-HT was determined in the presence of the compound to be tested.
Two different concentrations of a given compound were tested on each aortic strip by the above method. Reproducibility of the control 5-HT-evoked response was checked between testing the two concentrations of the compound.
(§1) IC50 was calculated by nonlinear curve fitting of the inhibitory effect of increasing concentrations of the test compound.

Assay [2] addresses T2, 5-HT2C receptor (Sus scrofa, UniProt K7GSR7).
T2 construct: pig brain choroid plexus membrane preparation; from tissue; host or cells: pig brain choroid plexus membrane preparation
T2 sequence (K7GSR7 1-457): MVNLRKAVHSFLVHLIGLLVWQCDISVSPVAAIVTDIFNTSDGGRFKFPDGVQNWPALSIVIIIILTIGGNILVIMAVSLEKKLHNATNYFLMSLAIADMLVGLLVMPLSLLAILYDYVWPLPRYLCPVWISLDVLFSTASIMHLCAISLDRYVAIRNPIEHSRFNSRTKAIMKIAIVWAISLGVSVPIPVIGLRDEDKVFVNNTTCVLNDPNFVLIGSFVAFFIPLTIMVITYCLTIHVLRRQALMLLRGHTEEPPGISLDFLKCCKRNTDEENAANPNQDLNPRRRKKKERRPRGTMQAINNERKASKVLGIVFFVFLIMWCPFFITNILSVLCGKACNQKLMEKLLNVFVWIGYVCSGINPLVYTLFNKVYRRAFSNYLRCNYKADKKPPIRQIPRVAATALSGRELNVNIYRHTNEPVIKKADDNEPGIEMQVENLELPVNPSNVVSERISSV
Briefly: 5-HT2C receptor binding ([3H]mesulergine, pig brain choroid plexus membrane preparation). Conditions: tritiated mesulergine, 37° C., read-out: Inhibition of receptor binding of the radioactive ligand, 5-HT2C (Ki). The protocol:
(§2) 5-HT2A and 5-HT2C receptor binding was measured according to the methods described by Leysen et al. /Mol. Pharmacol., 21, 301 (1981)/ and Pazos et al. /Eur. J. Pharmacol., 106, 539 (1985)/, respectively. 5-HT2A receptor binding was measured in rat brain frontal cortex membrane preparation using tritiated ketanserine /3-/2-(4-fluorobenzoyl)- -1-piperidinyl/ethyl-2,4-(1H,3H)-quinazoline-dione/(60-90 Ci/mmole) as ligand. 5-HT2C receptor binding was measured in pig brain choroid plexus membrane preparation using tritiated mesulergine /N'-/(8)-1,6-dimethyl-ergoline-8-yl/-N,N-dimethylsulfamide (70-85 Ci/mmole) as the ligand. Non-specific binding to 5-HT2A and 5-HT2C receptors were determined in the presence of 10 micro M cyproheptadine/4-(5H-dibenzo/a,d/cycloheptene-5-ylidene)-1-methylpiperidine/ and 1 micro M mianserine/1,2,3,4,10,14b-hexahydro-2-methyldibenzo-/c,f/pyrazino/1,2-a/azepine/, respectively. The final incubation volumes were 250 and 1000 microlitres. Samples were incubated for 15 and 30 minutes at 37° C. Incubation was stopped by adding 9 ml of ice-cold 50 mM tris(hydroxymethyl)-aminomethane hydrochloride (pH=7.7) to the reaction mixture. The samples were rapidly filtered through Whatman GF/B glass fiber filters using reduced pressure. Before use, the filters were soaked in a 0.05% poly-ethyleneimine solution for 2 to 3 hours. Radioactivity of the filters was determined by a scintillation spectrometer.

The test system of assay [3] is rat stomach fundus smooth muscle. Put plainly: Inhibition of serotonin-induced contractions of isolated rat stomach fundus smooth muscle. Conditions: 5-HT 10^-7 M, 37° C., read-out: Inhibition of 5-HT-evoked contractions of isolated rat stomach fundus, IC50. It counts as cell-based, rat (male Wistar). The protocol: The experiments were performed on male Wistar rats weighing 350 to 400 g. The animals were fasted for 24 hours before the experiments, however, they were allowed to drink tap water ad libitum. The method used was a modified version of Vane et al. /J. Pharmac. Chemother., 12, 344 (1957)/. The rats were killed by decapitation and their stomach was removed, and 3 mm wide and 20 to 30 mm long strips were cut in parallel with the greatest curvature of the stomach. The strips were incubated for 60 minutes in a 6 ml Lucite chamber filled with Tyrode solution (NaCl 136.9 mM, KCl2.7 mM, CaCl2 1.8 mM, MgCl2 1.0 mM, NaHCO3 11.9 mM, glucose 5.6 mM, NaH2 PO4 0.4 mM) warmed to 37° C. and bubbled with a gas consisting of 95% of oxygen and 5% of carbon dioxide. The strips were stretched with 0.5 g during the 60 minutes equilibration time and were washed every 20 minutes. The tension was measured isometrically by a strain gauge (Hugo Sachs) and was recorded on a Graphtech Mark VII 3101 polygraph.
Three control contractions were evoked by 5-HT added to the bath in 10^-7 M concentration (C1, C2, C3).
The effects of the test compounds were determined in 5 increasing concentrations (T2, T3, T4, T5, and T6). After determining the effect of two concentrations of the test compounds, the control 5-HT response was checked after each test measurement.
as §1

Assay [4] concerns the target T3, 5-HT2A receptor (Rattus norvegicus, UniProt P14842).
T3 construct: rat brain frontal cortex membrane preparation; from tissue; host or cells: rat brain frontal cortex membrane preparation
Put plainly: 5-HT2A receptor binding ([3H]ketanserine, rat brain frontal cortex membrane preparation). Conditions: tritiated ketanserine, 37° C., read-out: Inhibition of receptor binding of the radioactive ligand, 5-HT2A (Ki). Here is the method: as §2

For assay [5], the system named is human anxiety. The settings on record: cited from earlier work.

What is called IC50 is the concentration that inhibits the measured activity by half. The Ki is the dissociation constant of the complex between target and ligand, obtained from inhibition or displacement.

T3 sequence (P14842 whole entry): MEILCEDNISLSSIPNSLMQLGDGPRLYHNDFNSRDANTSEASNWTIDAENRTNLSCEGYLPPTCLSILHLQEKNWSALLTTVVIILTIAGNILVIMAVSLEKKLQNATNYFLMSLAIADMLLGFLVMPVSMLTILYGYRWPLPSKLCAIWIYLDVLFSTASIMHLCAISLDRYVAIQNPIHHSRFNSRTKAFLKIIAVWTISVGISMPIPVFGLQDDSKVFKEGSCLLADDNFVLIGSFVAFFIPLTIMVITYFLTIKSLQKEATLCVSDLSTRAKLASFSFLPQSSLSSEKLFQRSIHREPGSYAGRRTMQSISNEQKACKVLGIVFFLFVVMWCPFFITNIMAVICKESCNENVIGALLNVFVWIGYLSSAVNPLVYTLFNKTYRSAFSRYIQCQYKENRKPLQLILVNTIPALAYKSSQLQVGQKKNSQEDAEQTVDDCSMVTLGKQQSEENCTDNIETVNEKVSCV
T1 sequence (G1SYA7 1-469): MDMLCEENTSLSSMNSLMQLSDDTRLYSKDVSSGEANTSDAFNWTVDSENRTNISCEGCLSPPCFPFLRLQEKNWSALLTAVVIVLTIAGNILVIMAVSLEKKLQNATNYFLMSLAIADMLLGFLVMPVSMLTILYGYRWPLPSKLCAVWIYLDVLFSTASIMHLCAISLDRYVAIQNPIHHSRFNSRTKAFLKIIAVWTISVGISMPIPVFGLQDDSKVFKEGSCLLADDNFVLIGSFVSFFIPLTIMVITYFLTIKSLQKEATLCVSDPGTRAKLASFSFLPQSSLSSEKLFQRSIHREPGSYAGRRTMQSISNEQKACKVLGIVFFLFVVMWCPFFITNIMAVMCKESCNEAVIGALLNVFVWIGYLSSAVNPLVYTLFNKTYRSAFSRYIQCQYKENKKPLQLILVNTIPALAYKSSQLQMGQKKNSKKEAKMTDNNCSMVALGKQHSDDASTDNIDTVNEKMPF

Take `COc1ccc(Cc2c(N)nc(SCCN3CCN(Cc4ccccc4)CC3)nc2N)cc1` [Example 22, 2-/2-(4-Benzyl-1-piperazinyl)ethylthio/-4,6-diamino-5-(4-methoxybenzyl)pyrimidine]: the IC50 in assay [1] came to 420 nM; in assay [3] it was 320 nM. Further, the Ki in assay [2] was more than 100 nM; in assay [4], 56 nM.

Turning to `CN(C)c1ccc(Cc2c(N)nc(SCCN3CCN(Cc4ccc([N+](=O)[O-])cc4)CC3)nc2N)cc1` [Example 57, 2-[2-/4-(4-Nitrobenzyl)-1-piperazinyl/-ethylthio]-4,6-diamiiino-5-(4-dimethylamino-benzyl)pyrimidine], the IC50 in assay [1] and in assay [3] was 890 nM throughout. Besides, the values for the Ki in assay [2] and in assay [4] were 42 nM and more than 100 nM, respectively.

On to `Cc1nc2sccn2c(=O)c1CCN1CCC(=C(c2ccc(F)cc2)c2ccc(F)cc2)CC1` [ritanserin, 6-[2-14-bis(4-fluorophenyl)methylene/-1-piperidinyl-ethyl]-7-7-methyl-5H-thiazolo/3,2-a/pirimidine-5-one], for which the “effectiveness for the treatment of different forms of human anxiety” value in assay [5] is reported as “effective for the treatment of different forms of human anxiety”.
